# From a melting point compilation (Tetko et al.; mined from patent text by program, amines drawn as free bases though some values may be those of a salt)
row,melting point [°C],SMILES
1,103 to 106,O=C(c1ccccc1)N1Cc2ccccc2Oc2ccc(Cl)cc21
2,77 to 78,C=CCNC(=O)Nc1nn(Cc2ccccc2)cc1C(=O)OCC
3,126 to 127,CN(CCOc1ccc(CCCC2OC(=O)NC2=O)cc1)c1ccccn1 (stereo not given)
4,102 to 104,O=Cc1cccc(OCCCN2C(=O)c3ccccc3C2=O)c1
5,79 to 81,OCc1cccc(C=Cc2cccc(-c3ccsc3)c2)c1
6,46 to 50,CN1CCCC1CCOc1ccc(-c2nnc(CSCCOc3ccccc3)o2)cc1 (stereo not given)
7,174 to 177,O=C(O)C=NOC(CCCc1ccc(Cl)cc1)c1ccc(OCc2ccc3ccccc3n2)cc1 (stereo not given)
8,183 to 185,CCCn1c(N)cc(=O)n1-c1ccccc1
9,184 to 186,CC1CC(=O)NN=C1c1ccc(-n2ccc(CO)c2)cc1 (stereo not given)
10,288 to 290,O=C(O)c1ccc2nc3n(c(=O)c2c1)CCCC3=Cc1ccccc1
11,244 to 245,O=c1[nH]cnc(N=Nc2ccccc2)c1O
12,130 to 131,C=CCOC(=O)C1=C(C)NC(C)=C(C(=O)OCC=C)C1c1ccc(Br)cc1
13,> 330,Nc1c(C(=O)O)c(=O)[nH]c2cc(Cl)ccc12
14,149 to 150,COc1ccc(C(=O)c2c(N)sc3c2CCN(Cc2ccccc2)C3)cc1OC
15,211,CC(CC(=O)NCCc1ccc(C(=O)O)cc1)(c1ccccc1)c1ccccc1
16,272 to 275,Fc1ccc2[nH]c(C3=Cc4ccccc4C3)cc2c1
17,182 to 183,CCC(=O)CN1C(=O)C2(COc3cc4c(cc32)OCCO4)c2ccccc21 (stereo not given)
18,87.5 to 88.5,CCC(CC)(CC(=O)Nc1cccc(OCc2ccc3ccc(Cl)cc3n2)c1)C(=O)O

row,melting point [°C],SMILES
1,122,Clc1ccc2c(c1)N=C(c1ccncc1)c1ccccc1O2
2,139,O=S1(=O)N[C@@H](c2ccccc2)c2ccccc21
3,112 to 120,Cc1ccc(NCc2ccc(C(=O)Nc3ccccc3N)cc2)cc1Nc1nccc(-c2cccnc2)n1
4,96.5 to 98,COc1cn(C(C)C(=O)N(C)C)nc1-c1ccccc1 (stereo not given)
5,96 to 97,CSC(SC)C1(O)O[C@H](COCc2ccccc2)[C@@H](OCc2ccccc2)[C@H](OCc2ccccc2)[C@H]1OCc1ccccc1 (stereo not given in full)
6,227,Cc1cc(-c2ccc(Cl)cc2)nc(-c2cccc(-c3ccc(S(N)(=O)=O)s3)c2)n1
7,192 to 193,COCCN1CCN(CCc2ccccc2Nc2ncnc3[nH]cc(C(=O)c4ccccc4)c23)CC1
8,113 to 114,COCCN(c1cccc2cc(-c3nccs3)[nH]c12)S(=O)(=O)c1cccs1
9,141 to 143,N#CCCNc1ccc(CCCN2CCN(c3ccccc3)CC2)cc1
10,202 to 204,O=C(Nc1ccc(Oc2cccc3c2CCC3=O)nc1)c1ccc(Cl)c(Cl)c1
11,230,Cc1ccc(-c2nc(N)ncc2-c2ccc(=O)n(C)n2)cc1
12,77 to 80,CCCc1c(OCCOc2ccccc2C(=O)NCCCCc2cccnc2)ccc(C(C)=O)c1O
13,81 to 82,CCC(O)P(=O)(OCc1ccccc1)OCc1ccccc1 (stereo not given)
14,203 to 205,CC(C(=O)O)C1CCCc2c1n(Cc1ccc(Cl)cc1)c1ccc(F)cc21 (stereo not given)
15,128,CC(C)(C)c1cccc(S(=O)(=O)n2c(Cc3ccc(C(=O)O)cc3)cc3cc(C(F)(F)F)ccc32)c1
16,177 to 178,CCOc1nn(Cc2ccnc(OCc3cn4c(-c5ccccc5)cccc4n3)c2)cc1CCC(=O)O
17,174,CCCn1nc(-c2c(-c3ccccc3)nn3ccc(OC)cc23)ccc1=O

# Second part, the molecule before the results:
row,SMILES,melting point [°C]
1,COC(=O)C(C)(Cc1ccc(Cl)nc1)C(=O)OC,80 to 81
2,O=C(NCCO[N+](=O)[O-])c1ccc(Br)o1,61 to 63
3,COC(=O)COc1ccc(C(=O)C(C)C)cc1,45 to 46
4,Cc1nc(-c2ncn3c2COC(=O)c2c(Cl)cccc2-3)no1,253 to 255
5,CCCCNC(=O)[C@H](C)C[C@H](O)[C@H](CC1CCCCC1)NC(=O)[C@H](Cc1cscn1)NC(=O)OC(C)(C)C,172 to 174
6,CCC(Oc1ccccc1C(C)(C)C)C(=O)OC1CC(O)C=C2C=CC(C)C(CCC3CC(O)CC(=O)O3)C21 (mixture of isomers),176 to 178
7,CNC(Cc1cc(Br)cc(Br)c1N)c1sccc1C (stereo not given),141 to 143
8,CC1(C)NC(=O)c2cc(C#N)ccc2O1,127 to 129
9,CCC(CC)Oc1nc(C)nc(Oc2c(C)cc(C)cc2C)c1C,93.5 to 95.5
10,[N-]=[N+]=Nc1ccc(CBr)cc1Cl,75 to 77
11,CCCOc1nsc(NC(=O)NC)c1C(N)=O,195 to 198
12,C=CCC1C(=NO)C2CCC1CC2 (stereo not given),124 to 125
13,Cc1cc(C(=O)N2CCC3(CC2)CSC2=C(O3)c3ccccc3C(=O)C2=O)n(C)n1,244 to 245
14,CCCCCCc1ccc2c3ccc(CO)cc3n(C)c2c1,90 to 91
15,CCOC(=O)C1=NOC(c2ccc(NC(=O)c3c(I)cccc3C(=O)NC(C)C)c(C)c2)(C(F)(F)F)C1 (stereo not given),172 to 174
16,O=C(CCCCc1ccc2c(c1)OCO2)NC1CCCCC1,145 to 146
17,CC(=O)N1C(=O)N(c2ccc(C#N)c(C(F)(F)F)c2)C(=O)C1(C)C,129 to 130
18,CCc1cccc(C)c1COc1cc(C(=O)N(C)C)cc2c1nc(C)n2C,161 to 162

row,SMILES,melting point [°C]
1,Cc1nc(-c2ccc(Cl)cc2)c(CC(=O)O)o1,215 to 216
2,CC(=O)c1ccc2oc3nc(N)c(C(=O)O)cc3c(=O)c2c1,> 300
3,CCN(CC)C(=O)C=Cc1cc([N+](=O)[O-])ccc1C,61.9
4,COC(=O)C(Cl)=Cc1cc(-n2ncc(C(F)(F)F)c(C)c2=O)ccc1Cl,80 to 81
5,Cc1cc2c(Oc3cccc(C(F)(F)F)c3)nc(CCC(F)(F)F)nc2s1,85
6,Cc1cc(C)cc(C(=O)NC(C(N)=O)n2cccn2)c1 (stereo not given),193 to 195
7,CSc1nn(-c2c(Cl)cc(C(F)(F)F)cc2Cl)c(C)c1C(=O)c1cccc(C)c1,103 to 104
8,CN1C(=O)N(CC(COc2ccc(-c3ccc(S(N)(=O)=O)cc3)cc2)N(O)C=O)C(=O)C1(C)C (stereo not given),203 to 205
9,CCOC(=O)c1ccc(OCC2CN(c3nnc(C)s3)CCO2)cc1 (stereo not given),112
10,COCOc1c(C)cc(-c2ccc(C(=O)OC)cc2)cc1C,100 to 101
11,CC(=O)NC(C)(C(=O)NS(=O)(=O)c1ccc(C)cc1)C(C)C (stereo not given),198 to 199
12,CCCCCC(=O)Nc1ccc2ccn(CCCCCCCC#N)c2c1,85 to 86
13,FC1(F)C(Oc2cc(Cl)c(Cl)cc2Cl)=C(Oc2cc(Cl)c(Cl)cc2Cl)C(F)(F)C1(F)F,65 to 68
14,Cc1nn2c(c1C(N)=O)NCC=C2c1cc(Cl)ccc1Cl,93 to 96
15,CCc1nc2cc(C(F)(F)F)c(Cl)cc2n1-c1ccc(CCOC(=O)NS(=O)(=O)c2cn(C)c(C)n2)cc1,221
16,On1c(C(F)(F)F)nc2nc(Br)c(Cl)c(Br)c21,215
17,CCCc1c(OCCCCCOc2ccc3c(c2CCC)OC(C(=O)OCC)CC3=O)ccc(C(C)=O)c1O (stereo not given),80 to 81
